Laboratory results taken from patent US11760722B2 (priority 2022, dated 2023).
“And” between values parts separate entries of the source, which are not always exact repeats. Equal entries are not always repeated. Where two headings read alike, the source gives them in different places.

Key:
SARS-CoV-2 replicon = test: microbe, parasite or virus in culture; assay type: cell-based
[1] = system: human coronavirus (HCoV) 229E; test: microbe, parasite or virus in culture; assay type: cell-based, human coronavirus 229E
[2] = Severe acute respiratory syndrome coronavirus 2, Huh-7, 24 h; read-out: Replicon EC50
[3] = unidentified human coronavirus, 72 h, MRCS cells, HCoV 229E, 3 days, CellTiter Glo, read-out: 229E CPE EC50
[4] = MRCS cells, HCoV 229E, 3 days, CellTiter Glo, read-out: 229E CPE EC50

Compound	EC50 (SARS-CoV-2 replicon; Severe acute respiratory syndrome coronavirus 2, Huh-7, 24 h, read-out: Replicon EC50) [nM]	EC50 (SARS-CoV-2 replicon; read-out: Replicon EC50)	EC50 ([1]; unidentified human coronavirus, 72 h, read-out: 229E CPE EC50, MRCS cells, HCoV 229E, 3 days, CellTiter Glo) [nM]	EC50 (SARS-CoV-2 replicon; [2]) [nM]	EC50 [1, 3] [nM]	EC50 [1, 4]
CC(C)(C)OC(=O)N[C@H](C(=O)N1C[C@H]2[C@@H]([C@H]1C(=O)N[C@H](C#N)C[C@@H]1CCNC1=O)C2(C)C)C(C)(C)C [Compound 12]	106	119 nM	849			
CC(C)(C)[C@H](NC(=O)NC1(CS(=O)(=O)C(C)(C)C)CCCCC1)C(=O)N1C[C@H]2[C@@H]([C@H]1C(=O)N[C@H](C#N)C[C@@H]1CCNC1=O)C2(C)C [Compound 16]		1880 nM and 2040 nM		1290	16800	
CC(C)(C)[C@H](NC(=O)C(c1ccccc1)c1ccccc1)C(=O)N1C[C@H]2[C@@H]([C@H]1C(=O)N[C@H](C#N)C[C@@H]1CCNC1=O)C2(C)C [Compound 18, (1R,2S,5S)—N—((S)-1-cyano-2-((S)-2-oxopyrrolidin-3-yl)ethyl)-3-((S)-2-(2,2-diphenylacetamido)-3,3-dimethylbutanoyl)-6,6-dimethyl-3-azabicyclo[3.1.0]hexane-2-carboxamide]		1410 nM		1260	850	
CC(C)(C)[C@H](NC(=O)C12CC(C1)C2)C(=O)N1C[C@H]2[C@@H]([C@H]1C(=O)N[C@H](C#N)C[C@@H]1CCNC1=O)C2(C)C [Compound 20]		232 nM		186	2740	
CC(C)(C)[C@H](NC(=O)[C@H]1CCO1)C(=O)N1C[C@H]2[C@@H]([C@H]1C(=O)N[C@H](C#N)C[C@@H]1CCNC1=O)C2(C)C [Compound 22]				3000	19300	
Cn1c(C(=O)N[C@H](C(=O)N2C[C@H]3[C@@H]([C@H]2C(=O)N[C@H](C#N)C[C@@H]2CCNC2=O)C3(C)C)C(C)(C)C)cc2ccccc21 [Compound 27]				964	963	
CC(C)(C)[C@H](NC(=O)c1cnc2[nH]ccc2c1)C(=O)N1C[C@H]2[C@@H]([C@H]1C(=O)N[C@H](C#N)C[C@@H]1CCNC1=O)C2(C)C [Compound 32]				3150	13100	
CC(C)(C)[C@H](NC(=O)C12CC(F)(C1)C2)C(=O)N1C[C@H]2[C@@H]([C@H]1C(=O)N[C@H](C#N)C[C@@H]1CCNC1=O)C2(C)C [Compound 34]		300 nM and 420 nM		270	534	
CC(C)(C)[C@H](NC(=O)CC12CC(C1)C2)C(=O)N1C[C@H]2[C@@H]([C@H]1C(=O)N[C@H](C#N)C[C@@H]1CCNC1=O)C2(C)C [Compound 40]		320 nM and 360 nM and 390 nM		270	3120	3260 nM
CC(C)(C)[C@H](NS(=O)(=O)c1ccc(F)cc1)C(=O)N1C[C@H]2[C@@H]([C@H]1C(=O)N[C@H](C#N)C[C@@H]1CCNC1=O)C2(C)C [Compound 53, (1R,2S,5S)—N—((S)-1-cyano-2-((S)-2-oxopyrrolidin-3-yl)ethyl)-3-((S)-2-((4-fluorophenyl)sulfonamido)-3,3-dimethylbutanoyl)-6,6-dimethyl-3-azabicyclo[3.1.0]hexane-2-carboxamide]		100 nM		51	265	364 nM
CC(C)(C)[C@H](NS(=O)(=O)c1ccc(Cl)s1)C(=O)N1C[C@H]2[C@@H]([C@H]1C(=O)N[C@H](C#N)C[C@@H]1CCNC1=O)C2(C)C [Compound 54]		58 nM		54	106	127 nM
CC(C)(C)[C@H](NC(=S)NC1CCCC1)C(=O)N1C[C@H]2[C@@H]([C@H]1C(=O)N[C@H](C#N)C[C@@H]1CCNC1=O)C2(C)C [Compound 70]				1790	4990	
CCNC(=S)N[C@H](C(=O)N1C[C@H]2[C@@H]([C@H]1C(=O)N[C@H](C#N)C[C@@H]1CCNC1=O)C2(C)C)C(C)(C)C [Compound 72]					718	890 nM
CC(C)NC(=S)N[C@H](C(=O)N1C[C@H]2[C@@H]([C@H]1C(=O)N[C@H](C#N)C[C@@H]1CCNC1=O)C2(C)C)C(C)(C)C [Compound 73]				140	1320	
CC(C)(C)[C@H](NC(=S)Nc1ccccc1)C(=O)N1C[C@H]2[C@@H]([C@H]1C(=O)N[C@H](C#N)C[C@@H]1CCNC1=O)C2(C)C [Compound 74]				490	11500	
CC(C)(C)[C@H](NC(=O)C(F)(Cl)C(F)(F)F)C(=O)N1C[C@H]2[C@@H]([C@H]1C(=O)N[C@H](C#N)C[C@@H]1CCNC1=O)C2(C)C (stereo partly drawn) [Compound 75]		13 nM		6.9	92	118 nM
CC(C)(C)[C@H](NC(=S)NC1CC1)C(=O)N1C[C@H]2[C@@H]([C@H]1C(=O)N[C@H](C#N)C[C@@H]1CCNC1=O)C2(C)C [Compound 76]		480 nM		380	6320	7550 nM
CN(C)C(=S)N[C@H](C(=O)N1C[C@H]2[C@@H]([C@H]1C(=O)N[C@H](C#N)C[C@@H]1CCNC1=O)C2(C)C)C(C)(C)C [Compound 77]				4120	21100	
CNC(=S)N[C@@H](CC1CCC1)C(=O)N1C[C@H]2[C@@H]([C@H]1C(=O)N[C@H](C#N)C[C@@H]1CCNC1=O)C2(C)C [Compound 78]				1860	12600	

Compound	EC50 (SARS-CoV-2 replicon; Severe acute respiratory syndrome coronavirus 2, Huh-7, 24 h, read-out: Replicon EC50) [nM]	EC50 (SARS-CoV-2 replicon; read-out: Replicon EC50)	EC50 ([1]; unidentified human coronavirus, 72 h, read-out: 229E CPE EC50, MRCS cells, HCoV 229E, 3 days, CellTiter Glo) [nM]	EC50 (SARS-CoV-2 replicon; [2]) [nM]	EC50 [1, 3] [nM]	EC50 [1, 4]
CC(C)(C)[C@H](NS(=O)(=O)c1cccc(F)c1)C(=O)N1C[C@H]2[C@@H]([C@H]1C(=O)N[C@H](C#N)C[C@@H]1CCNC1=O)C2(C)C [Compound 79]		140 nM		81	256	266 nM
CC(C)(C)[C@H](NC(=O)C(F)(F)C(F)(F)Cl)C(=O)N1C[C@H]2[C@@H]([C@H]1C(=O)N[C@H](C#N)C[C@@H]1CCNC1=O)C2(C)C [Compound 80]		13 nM		6.5	92	116 nM
CC(C)(C)[C@H](NC(=O)C12CC(C(F)(F)F)(C1)C2)C(=O)N1C[C@H]2[C@@H]([C@H]1C(=O)N[C@H](C#N)C[C@@H]1CCNC1=O)C2(C)C [Compound 81]				1990	6860	
CC(C)(C)[C@H](NC(=O)Cc1ccc2c(c1)CCC2)C(=O)N1C[C@H]2[C@@H]([C@H]1C(=O)N[C@H](C#N)C[C@@H]1CCNC1=O)C2(C)C [Compound 82]					449	515 nM
CC(C)(C)[C@H](NS(=O)(=O)c1ccc2c(c1)CCO2)C(=O)N1C[C@H]2[C@@H]([C@H]1C(=O)N[C@H](C#N)C[C@@H]1CCNC1=O)C2(C)C [Compound 83]		72 nM		44	838	1060 nM
C=CS(=O)(=O)N[C@H](C(=O)N1C[C@H]2[C@@H]([C@H]1C(=O)N[C@H](C#N)C[C@@H]1CCNC1=O)C2(C)C)C(C)(C)C [Compound 84]				290	910	
CC(C)(C)[C@H](NS(=O)(=O)c1cccc2ccccc12)C(=O)N1C[C@H]2[C@@H]([C@H]1C(=O)N[C@H](C#N)C[C@@H]1CCNC1=O)C2(C)C [Compound 85]					238	368 nM
CC(C)(C)[C@H](NS(=O)(=O)C[C@@]12CC[C@@H](CC1=O)C2(C)C)C(=O)N1C[C@H]2[C@@H]([C@H]1C(=O)N[C@H](C#N)C[C@@H]1CCNC1=O)C2(C)C [Compound 86]				4020	9630	
CC(C)(C)[C@H](NS(=O)(=O)c1cccnc1)C(=O)N1C[C@H]2[C@@H]([C@H]1C(=O)N[C@H](C#N)C[C@@H]1CCNC1=O)C2(C)C [Compound 93]					3060	4380 nM
Cc1ccc(S(=O)(=O)N[C@H](C(=O)N2C[C@H]3[C@@H]([C@H]2C(=O)N[C@H](C#N)C[C@@H]2CCNC2=O)C3(C)C)C(C)(C)C)cc1 [Compound 96]					246	339 nM
CC(C)(C)[C@H](NS(=O)(=O)c1cccs1)C(=O)N1C[C@H]2[C@@H]([C@H]1C(=O)N[C@H](C#N)C[C@@H]1CCNC1=O)C2(C)C [Compound 100]					432	636 nM
CC(C)(C)[C@H](NS(=O)(=O)c1ccc2ccccc2c1)C(=O)N1C[C@H]2[C@@H]([C@H]1C(=O)N[C@H](C#N)C[C@@H]1CCNC1=O)C2(C)C [Compound 102]					84	125 nM
CC(C)(C)[C@H](NS(=O)(=O)c1ccc(F)s1)C(=O)N1C[C@H]2[C@@H]([C@H]1C(=O)N[C@H](C#N)C[C@@H]1CCNC1=O)C2(C)C [Compound 113]					388	
CC(C)(C)[C@H](NS(=O)(=O)c1sccc1Cl)C(=O)N1C[C@H]2[C@@H]([C@H]1C(=O)N[C@H](C#N)C[C@@H]1CCNC1=O)C2(C)C [Compound 114]					67	133 nM
Cc1ccc(S(=O)(=O)N[C@H](C(=O)N2C[C@H]3[C@@H]([C@H]2C(=O)N[C@H](C#N)C[C@@H]2CCNC2=O)C3(C)C)C(C)(C)C)s1 [Compound 118]					322	
CC(C)(C)[C@H](NS(=O)(=O)c1ccc(C2CC2)cc1)C(=O)N1C[C@H]2[C@@H]([C@H]1C(=O)N[C@H](C#N)C[C@@H]1CCNC1=O)C2(C)C [Compound 121]					56	66 nM
COc1ccsc1S(=O)(=O)N[C@H](C(=O)N1C[C@H]2[C@@H]([C@H]1C(=O)N[C@H](C#N)C[C@@H]1CCNC1=O)C2(C)C)C(C)(C)C [Compound 127]					711	
CC(C)(C)[C@H](NC(=O)C(F)(F)C(F)(F)C(F)(F)F)C(=O)N1C[C@H]2[C@@H]([C@H]1C(=O)N[C@H](C#N)C[C@@H]1CCNC1=O)C2(C)C [Compound 133]					122	160 nM and 164 nM
COc1ccc(S(=O)(=O)N(C)[C@H](C(=O)N2C[C@H]3[C@@H]([C@H]2C(=O)N[C@H](C#N)C[C@@H]2CCNC2=O)C3(C)C)C(C)(C)C)cc1 [Compound 137]					4840	
